Measurements reported in US7094869B2, “Low molecular weight peptidomimetic growth hormone secretagogues” (Genentech, Inc., priority 1994, dated 2006).
Entries after “also recorded” stand apart in the source; their conditions may differ. Like-named read-outs stand apart in the source and are kept apart here.

Columns and labels:
pituitary cells = test: Calcium flux experiment (Indo-1 AM loaded pituitary cells); assay type: cell-based, rat; conditions: 10 nM, 21 seconds after addition
[1] = GHRP induced dose dependent weight gain in rats (sc minipump infusion, 14 days); assay type: in vivo, rat
Protocol: Rat GHRH (1-43) was dissolved in the same buffer at 25 g/l.
The next day these osmotic pumps were inserted into rats.
Serum chemistries were measured by standard automated procedures.

ACTH = ACTH release from pituitary cells (RIA); assay type: cell-based, rat; conditions: 100 nM
Protocol: (§1) Dispersion: Adult female Sprague-Dawley (160-180 g., Charles River) rats were group-caged in a 12:12 light:dark cycle with food and water available ad libitum. Pituitaries from ten rats were removed, the posterior pituitary discarded and the anterior pituitary placed in Hanks' Balanced Salt Solution (HBSS: without calcium chloride, w/o magnesium chloride, w/o magnesium sulfate; Gibco) containing 20 mM HEPES (Gibco) and 100 U/ml penicillin streptomycin (PS: JRH Biosciences). Under sterile conditions, pituitaries were rinsed twice then minced into small fragments with a razor blade. Fragments were resuspended in 5 ml of HBSS/HEPES containing 20 mg collagenase (Serva 17449) and […] of 1 mg/ml DNase (Sigma) for a 40 min. incubation in a 37° C. gyrotory water bath shaker (New Brunswick Scientific Model G76; setting 10). After the incubation, fragments were triturated to yield small clumps and single cells. The cells were centrifuged 1000× g for 5 min, resuspended, counted and plated at a final cell concentration of 100,000 cells/ml. Incubation media was DME low glucose media w/NaHCO3 (Gibco) containing 20 mM hepes, 100 U/ml PS and 10% FBS (Hyclone A-111-L). Cells were plated at 0.5 ml per well in 48 well plates (Falcon) and incubated at 37° C. in 5% C02 for three days. For challenges to determine release of other pituitary hormones cells were plated at 200,000 cells per ml with 2 ml per well of a Swell plate (Corning). Challenge: A (inip)bbFK-NH2 stock (or other GHRP) concentration of 1 mM was made in DMSO and diluted with warmed media approximately 30 min prior to use. The highest concentration of DMSO in media was 0.1%. […] STATISTICS: The mean for each group was determined and analyzed by one-way analysis of variance with a post-hoc Student-Newman-Keuls. […] The EC50 was calculated using a 4-parameter curve-fit program (Kaleidagraph). […] RIA of pituitary hormones: LH, FSH, TSH, and Prolactin were determined with commercially available kits from Amersham, and ACTH levels were determined by a RIA kit from ICN. […]

TSH = TSH release from pituitary cells (RIA); assay type: cell-based, rat; conditions: 100 nM; listed as (inip)-bbFK-NH2
Protocol: as §1, with “After the incubation, fragments were triturated to yield small clumps and single cells.” left out, “cells/ml.” for “cells/ml. Incubation media was DME low glucose media w/NaHCO3 (Gibco) containing 20 mM hepes, 100 U/ml PS and 10% FBS (Hyclone A-111-L). Cells were plated at 0.5 ml per well in 48 well plates (Falcon) and incubated at 37° C. in 5% C02 for three days. For challenges to determine release of other pituitary hormones cells were plated at 200,000 cells per ml with 2 ml per well of a Swell plate (Corning). Challenge: A (inip)bbFK-NH2 stock (or other GHRP) concentration of 1 mM was made in DMSO and diluted with warmed media approximately 30 min prior to use. The highest concentration of DMSO in media was 0.1%.”

[2] = high dose (inip) b b F K-NH2 100 μg/day, GHRH 600 μg/day, 14 d infusion

In the case of NCCCC[C@H](NC(=O)[C@H](Cc1ccccc1)NC(=O)[C@@H](Cc1ccc2ccccc2c1)NC(=O)[C@@H](Cc1ccc2ccccc2c1)NC(=O)C1CCNCC1)C(N)=O [(inip) b b F K amide, (inip)-DβNal-DβNal-Phe-Lys-amide], the “Ca++ flux” value (pituitary cells; listed as (inip)-bbFK-NH2) is reported as “increased Ca flux”, the “Ca++ flux” value (pituitary cells; listed as (inip)bbFK-NH2) is reported as “increased C^++ flux” and the epiphyseal plate width ([1]; 14 d infusion) is reported as “no statistically significant increase”. For the same compound, the “pituitary and kidney weight” value ([1]; 14 d infusion) was “not affected”, the “heart weight compared to excipient” value ([1]; high dose 100 μg/day, GHRH 600 μg/day) was “tended to be increased” and the liver weight ([1]; high dose (100 μg/day), 14 d infusion) was 10.14 ± 0.29 g. It also gave a spleen weight [1, 2] of 628 ± 26 mg, a thymus weight [1, 2] of 584 ± 34 mg and a liver weight ([1]; low dose (4 μg/day), 14 d infusion) of 9.40 ± 0.37 g. For the same compound, the liver weight ([1]; medium dose (20 μg/day), 14 d infusion) was 9.70 ± 0.29 g, the “body weight gain compared to excipient” value ([1]; sc minipump 14 days, (inip) b b F K-NH2 4, 20, 100 μg/d, GHRH 600 μg/d, 90 day old female rats) was “dose-related weight gain; also recorded: significant body weight and organ weight gain” and the ACTH release (ACTH; listed as (inip)-bbFK-NH2) was “unchanged”. The ACTH release (ACTH; listed as (inip)bbFK-NH2) was “no significant change”, the “serum IGF-1 concentrations” value (either mode of delivery) was “not significantly affected” and the thymus weight (high dose infusion (100 μg/day)) was 0.25 ± 0.03 g. For the same compound, the epiphyseal plate width (high dose injections) was 191±8 μm, the heart weight (high dose injections) was 1.15 ± 0.10 g and the thymus weight (high dose injections) was 0.33 ± 0.02 g. The “eviscerated and skinned carcass weight” value (high dose injections (50 μg 2 times a day)) was 152.4 ± 2.5 g, the weight gain (in 14 days, FIG. 20) was 36 ± 3 g and the “cartilage growth (epiphyseal plate width)” value (infusions) was “did not significantly increase cartilage growth”. For the same compound, the “skin weight compared to control” value (injections and low dose infusion) was “heavier”, the “soleus muscle, kidney and liver weight” value (injections or infusions, 14 days) was “unaffected” and the epiphyseal plate width (low dose injections) was 160±11 μm. The “eviscerated and skinned carcass weight” value (low dose injections (10 μg 2 times a day)) was 152.8 ± 2.8 g, the weight gain (twice daily injections of 10 μg, adult female rats) was 30 gram and the TSH release (TSH) was “had no effect on these hormone concentrations; also recorded: unchanged”.
